Where two headings read alike, the source gives them in different places.
Assays:
B7-H1/624mel cells [1] = experiment: MTS tumor cell survival assay; assay type: cell-based; details: for drug resistance of B7-H1/624mel cells compared with Mock/624mel cells (tumor cell survival): varying drug concentrations, 72 hours of culture, MTS assay
Procedure: (§7) Cells were pre-treated with DMSO or NU7026 (10 uM) for 1 hour before treatment with doxorubicin (Dox). The relative survival of tumor cells was measured by MTS assay 72 hours after Dox treatment.
Experiments were conducted to test whether B7-H1-expressing tumors would show resistance to drugs that cause DNA damage. Along with cisplatin, which crosslinks DNA, doxorubicin (a topoisomerase II inhibitor that leads to generation of free radicals) and SN38 (a topoisomerase I inhibitor) were tested. Drug sensitivity in B7-H1- and Mock-transfected 624mel melanoma cells was examined in cultures with varying concentrations of the drugs. After 72 hours of culture, tumor cell survival was measured with a MTS assay (Pei et al., Cancer Cell 16:259-266, 2009).
(§8) To test whether the association of B7-H1 with DNA-PKcs is a mechanism of drug resistance, the effects of NU7026 on drug sensitivity of B7-H1- or Mock-transfected 624mel cells were tested. […] Using the same dose (10 uM) of NU7026, experiments were conducted to determine whether NU7026 would affect the drug sensitivity of B7-H1/624mel cells.

Mock/624mel cells = experiment: MTS tumor cell survival assay; assay type: cell-based; details: pretreatment with 10 uM NU7026 for 1 hour, MTS 72 hours after Dox
Procedure: as §7, §8

[2] = system: ERK1/2 activation in B7-H1/624mel cells; experiment: Intracellular flow cytometry for phospho-ERK1/2; assay type: cell-based; details: 10 uM, 24 hours
Procedure: (§1) FIG. 9 is a series of graphs plotting the levels of phosphorylated ERK (top graphs) and total ERK (bottom graphs) in Mock/624mel (left) and B7-H1/624mel (right) tumor cells treated with DMSO or NU7026. Cells were treated with DMSO or NU7026 (10 uM) for 24 hours before intracellular staining for phospho-ERK or total ERK. Numbers are MFI. Inhibition of DNA-PKcs reduced ERK activation, as indicated in the diagram on the right.
(§2) To test the role of DNA-PKcs in activation of the MAPK signal cascade, tumor cells were treated with NU7026, a DNA-PKcs specific inhibitor. […] As a mechanism of action of ERK1/2 in drug resistance, ERK1/2 phosphorylates Bim and enhances degradation of Bim in tumor cells (Gillings, et al., FEBS J 276:6050-6062, 2009; and Luciano et al., Oncogene 22:6785-6793, 2003).

[3] = system: ERK1/2 activation in Mock/624mel cells; experiment: Intracellular flow cytometry for phospho-ERK1/2; assay type: cell-based; details: 10 uM, 24 hours
Procedure: as §1, §2

[4] = molecular target: T1, association of B7-H1 with DNA-PKcs (Homo sapiens, UniProt P78527); experiment: Immuno-precipitation assay of B7-H1 association with DNA-PKcs; assay type: cell-based; details: B7-H1 positive human breast cancer cells (MBA-MD-231)
T1 construct: B7-H1 positive human breast cancer cells (MBA-MD-231) were used; endogenous in cells; host or cells: MDA-MB-231 human breast cancer cells
T1 sequence (P78527 whole entry): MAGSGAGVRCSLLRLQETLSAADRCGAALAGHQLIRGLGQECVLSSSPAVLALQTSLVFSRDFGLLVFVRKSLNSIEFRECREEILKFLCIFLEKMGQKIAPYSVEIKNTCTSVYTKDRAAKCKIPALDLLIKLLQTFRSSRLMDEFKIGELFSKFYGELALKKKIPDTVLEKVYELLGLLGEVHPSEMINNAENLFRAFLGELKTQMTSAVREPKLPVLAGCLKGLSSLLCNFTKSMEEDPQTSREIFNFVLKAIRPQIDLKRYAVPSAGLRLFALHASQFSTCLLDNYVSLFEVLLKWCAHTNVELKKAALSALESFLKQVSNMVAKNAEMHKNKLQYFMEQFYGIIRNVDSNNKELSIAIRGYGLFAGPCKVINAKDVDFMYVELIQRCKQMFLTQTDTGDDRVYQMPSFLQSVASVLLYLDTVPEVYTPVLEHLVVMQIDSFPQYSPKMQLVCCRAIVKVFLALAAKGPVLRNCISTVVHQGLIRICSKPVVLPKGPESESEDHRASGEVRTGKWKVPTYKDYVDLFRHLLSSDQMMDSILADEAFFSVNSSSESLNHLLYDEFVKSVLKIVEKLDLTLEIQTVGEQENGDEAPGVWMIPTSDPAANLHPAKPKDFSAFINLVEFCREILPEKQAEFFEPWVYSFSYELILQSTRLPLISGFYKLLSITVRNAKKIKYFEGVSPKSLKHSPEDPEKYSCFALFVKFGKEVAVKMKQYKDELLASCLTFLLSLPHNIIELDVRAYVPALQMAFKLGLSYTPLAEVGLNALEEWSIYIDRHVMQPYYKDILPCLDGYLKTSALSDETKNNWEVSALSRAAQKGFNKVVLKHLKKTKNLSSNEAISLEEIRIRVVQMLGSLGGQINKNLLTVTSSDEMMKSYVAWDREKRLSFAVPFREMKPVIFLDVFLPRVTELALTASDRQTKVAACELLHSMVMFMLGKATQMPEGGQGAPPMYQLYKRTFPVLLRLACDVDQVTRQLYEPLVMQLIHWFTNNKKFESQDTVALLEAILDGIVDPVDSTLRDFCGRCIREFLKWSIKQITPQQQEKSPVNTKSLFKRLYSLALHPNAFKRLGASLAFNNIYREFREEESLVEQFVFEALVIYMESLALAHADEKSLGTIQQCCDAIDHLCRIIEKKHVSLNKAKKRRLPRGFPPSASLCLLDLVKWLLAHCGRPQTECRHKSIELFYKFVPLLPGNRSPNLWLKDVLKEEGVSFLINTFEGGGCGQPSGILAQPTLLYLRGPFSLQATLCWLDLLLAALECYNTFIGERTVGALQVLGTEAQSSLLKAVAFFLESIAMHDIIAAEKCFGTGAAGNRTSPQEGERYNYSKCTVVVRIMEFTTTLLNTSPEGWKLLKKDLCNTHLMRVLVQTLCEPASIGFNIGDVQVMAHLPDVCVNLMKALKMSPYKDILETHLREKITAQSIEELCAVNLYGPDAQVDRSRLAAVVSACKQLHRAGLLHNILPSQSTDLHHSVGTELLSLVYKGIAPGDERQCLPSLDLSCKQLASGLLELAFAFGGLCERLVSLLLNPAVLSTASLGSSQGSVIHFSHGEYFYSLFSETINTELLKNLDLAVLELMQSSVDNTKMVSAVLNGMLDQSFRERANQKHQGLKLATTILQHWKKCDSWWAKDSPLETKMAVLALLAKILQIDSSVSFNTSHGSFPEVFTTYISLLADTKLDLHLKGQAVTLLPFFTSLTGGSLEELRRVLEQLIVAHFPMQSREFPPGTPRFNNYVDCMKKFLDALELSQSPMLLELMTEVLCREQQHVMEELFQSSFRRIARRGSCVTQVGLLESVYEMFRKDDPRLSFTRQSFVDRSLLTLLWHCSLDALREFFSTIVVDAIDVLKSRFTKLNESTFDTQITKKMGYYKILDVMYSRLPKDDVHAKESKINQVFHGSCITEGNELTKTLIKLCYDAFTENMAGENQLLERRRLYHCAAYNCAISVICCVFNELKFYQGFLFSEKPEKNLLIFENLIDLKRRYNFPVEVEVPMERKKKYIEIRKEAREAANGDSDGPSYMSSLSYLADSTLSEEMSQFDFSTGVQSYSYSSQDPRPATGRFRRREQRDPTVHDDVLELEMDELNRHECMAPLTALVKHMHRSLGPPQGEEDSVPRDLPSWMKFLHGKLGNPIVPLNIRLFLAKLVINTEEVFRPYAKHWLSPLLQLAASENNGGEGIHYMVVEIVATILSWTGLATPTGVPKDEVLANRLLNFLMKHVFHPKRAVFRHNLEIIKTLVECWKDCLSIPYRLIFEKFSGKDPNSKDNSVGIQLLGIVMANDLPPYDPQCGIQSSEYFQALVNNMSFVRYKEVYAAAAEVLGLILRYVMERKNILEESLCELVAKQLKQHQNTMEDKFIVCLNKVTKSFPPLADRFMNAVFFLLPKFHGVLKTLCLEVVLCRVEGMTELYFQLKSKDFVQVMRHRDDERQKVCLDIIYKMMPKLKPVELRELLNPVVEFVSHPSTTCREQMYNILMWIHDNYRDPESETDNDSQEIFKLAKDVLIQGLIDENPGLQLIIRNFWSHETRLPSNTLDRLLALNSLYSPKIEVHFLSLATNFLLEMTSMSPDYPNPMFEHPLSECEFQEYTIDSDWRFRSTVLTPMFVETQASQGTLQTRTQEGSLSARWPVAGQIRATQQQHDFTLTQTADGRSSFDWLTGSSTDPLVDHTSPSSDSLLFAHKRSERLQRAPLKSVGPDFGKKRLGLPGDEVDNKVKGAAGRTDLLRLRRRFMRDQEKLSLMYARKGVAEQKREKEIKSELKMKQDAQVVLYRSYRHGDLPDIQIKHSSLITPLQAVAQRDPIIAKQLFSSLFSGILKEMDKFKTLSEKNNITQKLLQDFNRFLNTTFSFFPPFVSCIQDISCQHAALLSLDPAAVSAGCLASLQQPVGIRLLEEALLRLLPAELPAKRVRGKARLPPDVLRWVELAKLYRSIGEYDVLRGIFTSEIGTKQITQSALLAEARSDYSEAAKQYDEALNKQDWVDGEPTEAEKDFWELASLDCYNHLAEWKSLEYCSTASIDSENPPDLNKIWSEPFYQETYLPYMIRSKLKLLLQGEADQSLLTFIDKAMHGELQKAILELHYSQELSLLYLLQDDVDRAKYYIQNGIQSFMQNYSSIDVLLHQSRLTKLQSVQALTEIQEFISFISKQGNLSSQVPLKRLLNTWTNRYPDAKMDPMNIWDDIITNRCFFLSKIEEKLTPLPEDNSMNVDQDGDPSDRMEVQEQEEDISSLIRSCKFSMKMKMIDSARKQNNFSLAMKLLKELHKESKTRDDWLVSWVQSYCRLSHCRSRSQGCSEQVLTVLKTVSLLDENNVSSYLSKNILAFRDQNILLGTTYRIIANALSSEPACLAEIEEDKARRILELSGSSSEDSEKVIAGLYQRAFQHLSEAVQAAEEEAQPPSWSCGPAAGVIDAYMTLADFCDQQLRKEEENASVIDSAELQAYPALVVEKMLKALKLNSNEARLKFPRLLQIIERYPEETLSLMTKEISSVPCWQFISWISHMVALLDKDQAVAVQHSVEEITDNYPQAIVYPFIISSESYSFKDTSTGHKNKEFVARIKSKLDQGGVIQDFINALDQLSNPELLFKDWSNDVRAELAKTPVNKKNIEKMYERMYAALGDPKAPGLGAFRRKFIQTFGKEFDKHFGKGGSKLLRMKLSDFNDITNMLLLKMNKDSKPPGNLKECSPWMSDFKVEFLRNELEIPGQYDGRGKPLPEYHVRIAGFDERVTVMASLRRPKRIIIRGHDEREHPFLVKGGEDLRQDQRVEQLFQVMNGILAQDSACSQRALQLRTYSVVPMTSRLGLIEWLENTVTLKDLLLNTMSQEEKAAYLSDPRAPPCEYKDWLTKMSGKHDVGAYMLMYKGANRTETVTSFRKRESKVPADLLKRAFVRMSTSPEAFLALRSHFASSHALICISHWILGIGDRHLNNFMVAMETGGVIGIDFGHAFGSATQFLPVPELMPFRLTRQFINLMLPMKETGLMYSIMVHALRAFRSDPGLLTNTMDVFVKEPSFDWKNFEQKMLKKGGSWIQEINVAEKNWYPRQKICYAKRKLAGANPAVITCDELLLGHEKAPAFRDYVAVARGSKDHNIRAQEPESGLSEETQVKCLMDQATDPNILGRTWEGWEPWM
Procedure: (§3) MBA-MD-231 human breast cancer cells, which are positive for B7-H1, were incubated with NU7026, an inhibitor of DNA-PKCs. […] FIG. 15B is a series of pictures from an immunofluorescence assay in which the cells treated with doxorubicin, NU7026, or both, and stained for DNA-PKcs, DNA, or B7-H1. Doxorubicin-induced co-localization (arrow, upper right panel) of B7-H1 and DNA-PKcs at the nucleus was blocked by NU7026 (lower right panel).
(§4) B7-H1 positive human breast cancer cells (MBA-MD-231) were used to examine the association of DNA-PKcs and B7-H1.

[5] = molecular target: T2, co-localization of B7-H1 and DNA-PKcs at the nucleus (Homo sapiens, UniProt P78527); experiment: Immunofluorescence staining of B7-H1 and DNA-PKcs co-localization; assay type: cell-based
T2 construct: B7-H1 positive human breast cancer cells (MBA-MD-231) were used; endogenous in cells; host or cells: MDA-MB-231 human breast cancer cells
T2 sequence (P78527 whole entry): as above
Procedure: FIG. 6 is a series of pictures showing co-localization of B7-H1 and DNA-PKcs. A human breast tumor cell line (MDA-MB-231) was treated with doxorubicin (2 ug/ml) for 2 hours. […] Arrows or arrowheads indicate B7-H1 in plasma or in nuclei, respectively.
as §3
B7-H1 undergoes redistribution from the cell surface into the nucleus in human breast tumor cells upon treatment with the cytotoxic drug, doxorubicin (Ghebeh et al., supra).
as §4

DNA-PKcs = DNA-PKcs (Homo sapiens, UniProt P78527); details: cited from earlier work
PI3K = details: read-out: IC50 for inhibition of PI3K; cited from earlier work
B7-H1/624mel cells [6] = experiment: Apoptosis by Annexin V binding and TMRE staining; assay type: cell-based; details: doxorubicin 1.5 ug/ml, 48 hr
Description: (§5) FIG. 1A is a series of graphs plotting relative survival of Mock/624mel (triangles) and B7-H1/624mel (squares) cells treated with the indicated drugs, as determined by MTS (3-(4,5-dimethylthiazol-2-yl)-5-(3-carboxymethoxyphenyl)-2-(4-sulfophenyl)-2H-tetrazolium) assay. The p-value for area under the curve (dose-response curves) was significant (p<0.01) for treatment with cisplatin (left), doxorubicin (center), and SN38 (right). One of three experiments is shown. Apoptosis of tumor cells treated with doxorubicin (1.5 ug/ml, 48 hr.) was analyzed by tetramethylrhodamine ethyl ester (TMRE) and Annexin V staining (FIG. 1), and by intracellular staining for active caspase-3 (FIG. 1C). Numbers are percentages of gated population.
(§6) Experiments were conducted to test whether B7-H1-expressing tumors would show resistance to drugs that cause DNA damage. […] After 72 hours of culture, tumor cell survival was measured with a MTS assay (Pei et al., Cancer Cell 16:259-266, 2009). […] Since a mechanism of action of most cytotoxic drugs is to induce apoptosis (Sedletska et al., Curr Med Chem Anti-cancer Agents 5:251-265, 2005; and Wang et al., J Biol Chem 279:25535-25543, 2004), apoptosis of B7-H1/624mel and Mock/624mel tumor cells was measured and compared after treatment with doxorubicin. […]

B7-H1/624mel cells [7] = experiment: Intracellular staining for active caspase-3; assay type: cell-based; details: doxorubicin 1.5 ug/ml, 48 hr
Description: as §5, §6

O=c1cc(N2CCOCC2)oc2c1ccc1ccccc12 [NU7026]
effect on resistance of B7-H1/624mel cells to doxorubicin (B7-H1/624mel cells [1]; pretreatment with 10 uM NU7026 for 1 hour, MTS 72 hours after Dox): lost their resistance to doxorubicin | effect on drug sensitivity of Mock/624mel cells (Mock/624mel cells): increased the drug sensitivity | decrease of activation of ERK1/2 (phospho-ERK) [2]: ~2 fold | decrease of activation of ERK1/2 (phospho-ERK) [3]: not | effect on association of B7-H1 with DNA-PKcs [4]: abolished | effect on doxorubicin-induced co-localization of B7-H1 and DNA-PKcs at the nucleus ([5]; MBA-MD-231 cells, 1 μM NU7026): blocked | inhibition of DNA-PKcs activity (DNA-PKcs; 10 uM): completely inhibits | IC50 (DNA-PKcs; read-out: IC50 for inhibiting DNA-PKcs activity): 230 nM | IC50 (DNA-PKcs; read-out: IC50 to inhibit DNA-PKcs): 230 nM | IC50 (PI3K): 13000 nM

CCc1c2c(nc3ccc(O)cc13)-c1cc3c(c(=O)n1C2)COC(=O)[C@]3(O)CC [SN38]
drug resistance of B7-H1/624mel cells compared with Mock/624mel cells (tumor cell survival) (B7-H1/624mel cells [1]): more resistant

N.N.[Cl][Pt][Cl] [cisplatin]
drug resistance of B7-H1/624mel cells compared with Mock/624mel cells (tumor cell survival) (B7-H1/624mel cells [1]): more resistant

COc1cccc2c1C(=O)c1c(O)c3c(c(O)c1C2=O)C[C@@](O)(C(=O)CO)C[C@@H]3O[C@H]1C[C@H](N)[C@H](O)[C@H](C)O1 [doxorubicin]
drug resistance of B7-H1/624mel cells compared with Mock/624mel cells (tumor cell survival) (B7-H1/624mel cells [1]): more resistant | apoptosis in B7-H1/624mel cells compared to Mock/624mel cells (fold less) (B7-H1/624mel cells [6]): 5 fold | level of active caspase-3 in B7-H1/624mel cells compared with Mock/624mel cells (B7-H1/624mel cells [7]): lower | localization of B7-H1 and DNA-PKcs after treatment with cytotoxic drug ([5]; MDA-MB-231 cells, doxorubicin 2 ug/ml, 2 hours): co-localization of B7-H1 and DNA-PKcs was observed in the nuclei
